The source of these data is patent publication US9303042B2, “Triazolothienopyrimidine compound inhibitors of urea transporters and methods of using inhibitors” (The Regents of the University of California, priority 2012, dated 2016).

The target in the first data set is T1, UT-B (Mus musculus, UniProt Q8VHL0).
T1 sequence (Q8VHL0 1-384): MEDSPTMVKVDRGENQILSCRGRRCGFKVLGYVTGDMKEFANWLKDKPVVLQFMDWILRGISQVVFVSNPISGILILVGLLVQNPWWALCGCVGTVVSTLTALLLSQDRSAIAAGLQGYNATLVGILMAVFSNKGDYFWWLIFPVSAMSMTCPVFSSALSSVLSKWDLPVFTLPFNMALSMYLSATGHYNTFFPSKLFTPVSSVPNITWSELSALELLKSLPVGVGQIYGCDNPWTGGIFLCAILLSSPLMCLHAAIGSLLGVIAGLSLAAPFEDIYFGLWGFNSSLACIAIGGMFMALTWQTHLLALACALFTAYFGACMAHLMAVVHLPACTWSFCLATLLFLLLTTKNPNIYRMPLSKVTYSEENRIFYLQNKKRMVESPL
Briefly: Erythrocyte lysis assay of UT-B inhibition. It is filed as cell-based. Set-up: Screening was performed using mouse erythrocytes, which strongly express UT-B; endogenous in cells; host or cells: erythrocytes in whole blood of wild-type CD1 mice.
Conditions: not given
How it is done:
Screening was performed using mouse erythrocytes, which strongly express UT-B and are highly water permeable because the cells also express aquaporin-1 (AQP1) water channels. The screening method involved assay of erythrocyte lysis in response to a large, outwardly directed gradient of acetamide, a urea analog that is transported efficiently by UT-B. A large, outwardly directed gradient of acetamide causes transient cell swelling, but little cell lysis, because UT-B-facilitated acetamide efflux limits water influx (see FIG. 1A). UT-B inhibition prevents acetamide efflux, allowing unopposed cell swelling and consequent cell lysis, which was recorded by reduced near-infrared light absorption at 710 nm.
Primary screening was done using a collection of 100,000 diverse, drug-like compounds from commercial sources (ChemDiv, San Diego, Calif.; Asinex, Winston-Salem, N.C.). […] Vigorous mixing was achieved by repeated pipetting. Erythrocyte lysis was quantified by absorbance at 710 nm wavelength, made within 5 min after hypo-osmolar shock. […] For analysis of structure-activity relationships >900 commercially available analogs (ChemDiv and Asinex) were tested.
Turning to `CCc1ccc(S(=O)(=O)c2nnn3c2nc(N2CCOCC2)c2sccc23)cc1` [Compound 2bq], 5710 nM corresponded to half-maximal inhibition (IC50).

Staying with this data set, now noted: Table 1, commercially available analogues, erythrocyte lysis assay; read-out: IC50.
Consider `NC(=O)C1CCN(c2nc3c(S(=O)(=O)c4ccccc4)nnn3c3ccsc23)CC1` [Compound 2aa], for which the IC50 (usually the point on the concentration scale where inhibition reaches its midpoint) was 7660 nM.

Turning to `COCCCNc1nc2c(S(=O)(=O)c3ccccc3)nnn2c2ccsc12` [Compound 2ab, {3-benzenesulfonyl-thieno[2,3-e][1,2,3]triazolo[1,5-a]pyrimidin-5-yl}-3-methoxypropyl-amine], the IC50 came to 4350 nM.

As to `Cc1ccc(S(=O)(=O)c2nnn3c2nc(NCc2ccco2)c2sccc23)cc1` [Compound 2ac, furan-2-ylmethyl-[3-(4-methyl-benzenesulfonyl)-thieno[2,3-e][1,2,3]triazolo[1,5-a]pyrimidin-5-yl]-amine], the IC50 was determined as 2150 nM.

Consider `Cc1ccc(S(=O)(=O)c2nnn3c2nc(NCC2CCCO2)c2sccc23)cc1` (stereo not drawn) [Compound 2ae, tetrahydrofuran-2-ylmethyl-[3-(4-methyl-benzenesulfonyl)-thieno[2,3-e][1,2,3]triazolo[1,5-a]pyrimidin-5-yl]-amine], for which the 50% inhibitory concentration (IC50) was found to be 5740 nM.

Turning to `Cc1ccc(S(=O)(=O)c2nnn3c2nc(NCCCOC(C)C)c2sccc23)cc1` [Compound 2af, {3-[4-methyl-benzenesulfonyl]-thieno[2,3-e][1,2,3]triazolo[1,5-a]pyrimidin-5-yl}-3-(1-methylethoxyl)propyl-amine], the IC50 worked out at 11700 nM.

As for `Cc1ccc(S(=O)(=O)c2nnn3c2nc(NC(C)c2ccccc2)c2sccc23)cc1` (stereo not drawn) [Compound 2ag, [3-(4-methyl-benzenesulfonyl)-thieno[2,3-e][1,2,3]triazolo[1,5-a]pyrimidin-5-yl]-(1-phenyl-1-methyl)methyl-amine], the IC50 is 11200 nM.

Consider `COc1cccc(CNc2nc3c(S(=O)(=O)c4ccc(C)cc4)nnn3c3ccsc23)c1` [Compound 2ah, [3-(4-methyl-benzenesulfonyl)-thieno[2,3-e][1,2,3]triazolo[1,5-a]pyrimidin-5-yl]-(3-methoxy-benzyl)-amine], for which the IC50 came out at 2750 nM.

Regarding `COCCNc1nc2c(S(=O)(=O)c3ccc(C)cc3)nnn2c2ccsc12` [Compound 2ai, {3-[4-methyl-benzenesulfonyl]-thieno[2,3-e][1,2,3]triazolo[1,5-a]pyrimidin-5-yl}-2-methoxyethyl-amine], the IC50 is 2870 nM.

With `CCN1CCN(c2nc3c(S(=O)(=O)c4ccc(C)cc4)nnn3c3ccsc23)CC1` [Compound 2ak], the IC50 amounted to 7880 nM.

For `Cc1ccc(S(=O)(=O)c2nnn3c2nc(NC2CCCC2)c2sccc23)cc1` [Compound 2al], the half-maximal inhibitory concentration (IC50) stood at 6380 nM.

On to `CCN(CC)c1nc2c(S(=O)(=O)c3ccc(C)c(C)c3)nnn2c2ccsc12` [Compound 2ap], for which the half-inhibitory concentration (IC50) stood at 2490 nM.

With `Cc1ccc(S(=O)(=O)c2nnn3c2nc(N2CCC(C(N)=O)CC2)c2sccc23)cc1C` [Compound 2aq], the 50% inhibitory concentration (IC50) came to 2120 nM.

As for `Cc1ccc(S(=O)(=O)c2nnn3c2nc(NC(C)C)c2sccc23)cc1C` [Compound 2av], the IC50 was determined as 2190 nM.

Regarding `Cc1ccc(S(=O)(=O)c2nnn3c2nc(NCCCOC(C)C)c2sccc23)cc1C` [Compound 2ax, {3-[3,4-dimethyl-benzenesulfonyl]-thieno[2,3-e][1,2,3]triazolo[1,5-a]pyrimidin-5-yl}-3-(1-methylethoxyl)propyl-amine], the IC50 stood at 2480 nM.

`COc1cccc(CNc2nc3c(S(=O)(=O)c4ccc(C)c(C)c4)nnn3c3ccsc23)c1` [Compound 2ay, [3-(3,4-dimethyl-benzenesulfonyl)-thieno[2,3-e][1,2,3]triazolo[1,5-a]pyrimidin-5-yl]-(3-methoxy-benzyl)-amine]: the IC50 was found to be 3770 nM.

Take `COCCNc1nc2c(S(=O)(=O)c3ccc(C)c(C)c3)nnn2c2ccsc12` [Compound 2ba, {3-[3,4-dimethyl-benzenesulfonyl]-thieno[2,3-e][1,2,3]triazolo[1,5-a]pyrimidin-5-yl}-2-methoxyethyl-amine]: the IC50 was 2500 nM.

As to `Cc1ccc(S(=O)(=O)c2nnn3c2nc(NC2CCCCC2)c2sccc23)cc1C` [Compound 2bb], the half-maximal inhibitory concentration (IC50) was determined as 8190 nM.

For `Cc1ccc(S(=O)(=O)c2nnn3c2nc(NCc2ccc(F)cc2)c2sccc23)cc1C` [Compound 2be, [3-(3,4-dimethyl-benzenesulfonyl)-thieno[2,3-e][1,2,3]triazolo[1,5-a]pyrimidin-5-yl]-(4-fluoro-benzyl)-amine], the half-inhibitory concentration (IC50) was 5640 nM.

Turning to `COCCCNc1nc2c(S(=O)(=O)c3ccc(Cl)cc3)nnn2c2ccsc12` [Compound 2bj, {3-[4-chloro-benzenesulfonyl]-thieno[2,3-e][1,2,3]triazolo[1,5-a]pyrimidin-5-yl}-3-methoxypropyl-amine], the IC50 is 2310 nM.

As to `CC(C)c1ccc(S(=O)(=O)c2nnn3c2nc(NCC2CCCO2)c2sccc23)cc1` (stereo not drawn) [Compound 2bk, tetrahydrofuran-2-ylmethyl-[3-(4-isopropyl-benzenesulfonyl)-thieno[2,3-e][1,2,3]triazolo[1,5-a]pyrimidin-5-yl]-amine], the half-inhibitory concentration (IC50) came to 2660 nM.

As for `CCOCCCNc1nc2c(S(=O)(=O)c3ccc(C(C)C)cc3)nnn2c2ccsc12` [Compound 2bl, {3-[4-isopropyl-benzenesulfonyl]-thieno[2,3-e][1,2,3]triazolo[1,5-a]pyrimidin-5-yl}-3-ethoxylpropyl-amine], the IC50 was determined as 4080 nM.

In the case of `CCc1ccc(S(=O)(=O)c2nnn3c2nc(NC2CCCC2)c2sccc23)cc1` [Compound 2bz], the IC50 was 1540 nM.

As to `CCc1ccc(S(=O)(=O)c2nnn3c2nc(N2CCN(C)CC2)c2sccc23)cc1` [Compound 2cc], the half-inhibitory concentration (IC50) came out at 590 nM.

On to `CCc1ccc(S(=O)(=O)c2nnn3c2nc(N2CCN(CC)CC2)c2sccc23)cc1` [Compound 2cd], for which the IC50 was determined as 11900 nM.

Take `CCc1ccc(S(=O)(=O)c2nnn3c2nc(NCCN(C)C)c2sccc23)cc1` [Compound 2ch]: the IC50 was determined as 8460 nM.

As for `Cc1ccc(C)c(S(=O)(=O)c2nnn3c2nc(N2CCC(C(N)=O)CC2)c2sccc23)c1` [Compound 2ci], the half-inhibitory concentration (IC50) turned out to be 3340 nM.

For the compound `CCOCCCNc1nc2c(S(=O)(=O)c3cc(C)ccc3C)nnn2c2ccsc12` [Compound 2ck, {3-[2,5-dimethyl-benzenesulfonyl]-thieno[2,3-e][1,2,3]triazolo[1,5-a]pyrimidin-5-yl}-3-ethoxypropyl-amine], the concentration for half-maximal inhibition (IC50) was determined as 9850 nM.

Regarding `Cc1ccc(C)c(S(=O)(=O)c2nnn3c2nc(NCCCOC(C)C)c2sccc23)c1` [Compound 2cl, {3-[2,5-dimethyl-benzenesulfonyl]-thieno[2,3-e][1,2,3]triazolo[1,5-a]pyrimidin-5-yl}-3-(1-methylethoxyl)propyl-amine], the IC50 came to 2060 nM.

On to `Cc1ccc(C)c(S(=O)(=O)c2nnn3c2nc(NC(C)c2ccccc2)c2sccc23)c1` (stereo not drawn) [Compound 2cm, [3-(2,5-dimethyl-benzenesulfonyl)-thieno[2,3-e][1,2,3]triazolo[1,5-a]pyrimidin-5-yl]-(1-phenyl-1-methyl)methyl-amine], for which the 50% inhibitory concentration (IC50) stood at 702 nM.

In the case of `Cc1ccc(C)c(S(=O)(=O)c2nnn3c2nc(NCc2ccc(F)cc2)c2sccc23)c1` [Compound 2cp, [3-(2,5-dimethyl-benzenesulfonyl)-thieno[2,3-e][1,2,3]triazolo[1,5-a]pyrimidin-5-yl]-(4-fluoro-benzyl)-amine], the concentration for half-maximal inhibition (IC50) came out at 671 nM.

`Cc1ccc(C)c(S(=O)(=O)c2nnn3c2nc(NCc2ccccc2)c2sccc23)c1` [Compound 2cq, [3-(2,5-dimethyl-benzenesulfonyl)-thieno[2,3-e][1,2,3]triazolo[1,5-a]pyrimidin-5-yl]-benzyl-amine]: the IC50 was found to be 1650 nM.

With `Cc1ccc(C)c(S(=O)(=O)c2nnn3c2nc(NCc2ccco2)c2sccc23)c1` [Compound 2cs, furan-2-ylmethyl-[3-(2,5-dimethyl-benzenesulfonyl)-thieno[2,3-e][1,2,3]triazolo[1,5-a]pyrimidin-5-yl]-amine], the IC50 was found to be 2660 nM.

Regarding `NC(=O)C1CCN(c2nc3c(S(=O)(=O)c4cccc(Cl)c4)nnn3c3ccsc23)CC1` [Compound 2cv], the half-inhibitory concentration (IC50) stood at 3140 nM.

On to `O=S(=O)(c1cccc(Cl)c1)c1nnn2c1nc(NCc1cccs1)c1sccc12` [Compound 2cw, {3-[3-chloro-benzenesulfonyl]-thieno[2,3-e][1,2,3]triazolo[1,5-a]pyrimidin-5-yl}-thiophen-2-ylmethyl-amine], for which the half-maximal inhibitory concentration (IC50) was determined as 2080 nM.

Tested on in the next data set: not listed separately
Briefly: In vitro metabolic stability in hepatic microsomes. It is filed as in vitro ADME, rat. As to conditions: 10 min, liver microsomes, NADPH, compound 5 μM.
Procedure: Compounds, each at 5 μM, were incubated for specified times at 37° C. with rat liver microsomes (1 mg protein/ml; Sigma-Aldrich, St. Louis, Mo.) in potassium phosphate buffer (100 mM) containing 1 mM NADPH. The mixture was then chilled on ice, and 0.5 ml of ice-cold ethyl acetate was added.
In the case of `COCCCNc1nc2c(S(=O)(=O)c3ccccc3)nnn2c2ccsc12` [Compound 2ab, {3-benzenesulfonyl-thieno[2,3-e][1,2,3]triazolo[1,5-a]pyrimidin-5-yl}-3-methoxypropyl-amine], the “% Remaining after 10 min incubation with liver microsomes” value amounted to 27%.
